According to patent publication US11932657B2, “Heterocyclic compound” (priority 2018, dated 2024):
pIC50: −log10 of the molar value.

Biological target: T1, aryl hydrocarbon receptor (AhR) (Homo sapiens, UniProt P35869)
T1 construct: DRE-Luc HepG2 cells subcultured in a 225 cm^2 flask; endogenous in cells; host or cells: HepG2 (ATCC), stably transfected with the reporter hCYP1A1/pGL4.27 (DRE-Luc HepG2)
T1 sequence (P35869 11-848): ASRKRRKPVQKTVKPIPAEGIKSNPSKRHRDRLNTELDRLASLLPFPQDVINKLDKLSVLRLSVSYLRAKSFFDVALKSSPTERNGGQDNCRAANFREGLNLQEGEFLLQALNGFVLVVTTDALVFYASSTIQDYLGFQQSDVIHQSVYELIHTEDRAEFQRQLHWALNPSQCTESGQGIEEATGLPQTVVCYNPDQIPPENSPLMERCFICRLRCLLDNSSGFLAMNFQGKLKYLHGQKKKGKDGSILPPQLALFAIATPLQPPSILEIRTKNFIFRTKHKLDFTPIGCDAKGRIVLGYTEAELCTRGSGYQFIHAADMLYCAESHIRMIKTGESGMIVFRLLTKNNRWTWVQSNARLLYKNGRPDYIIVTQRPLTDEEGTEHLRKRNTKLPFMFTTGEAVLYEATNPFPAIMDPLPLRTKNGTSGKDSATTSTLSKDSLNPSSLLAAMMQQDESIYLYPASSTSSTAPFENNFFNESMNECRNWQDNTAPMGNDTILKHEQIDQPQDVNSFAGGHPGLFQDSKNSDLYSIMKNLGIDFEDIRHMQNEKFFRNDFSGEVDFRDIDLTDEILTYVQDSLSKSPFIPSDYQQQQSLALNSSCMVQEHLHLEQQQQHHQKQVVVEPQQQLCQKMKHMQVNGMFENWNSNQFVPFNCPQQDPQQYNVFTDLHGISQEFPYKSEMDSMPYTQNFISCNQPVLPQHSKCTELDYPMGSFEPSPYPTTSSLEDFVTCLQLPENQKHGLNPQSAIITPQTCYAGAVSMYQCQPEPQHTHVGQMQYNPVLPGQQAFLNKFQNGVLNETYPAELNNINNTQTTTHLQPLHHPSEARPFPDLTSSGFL
Experiment: AhR reporter gene assay (aryl hydrocarbon receptor antagonist activity, DRE-Luc HepG2 cells, TCDD-stimulated luciferase)
Assay type: cell-based
Settings: not given
Procedure: Test Example 1 (Aryl Hydrocarbon Receptor Antagonist Activity)
An expression vector, hCYP1A1/pGL4.27 was introduced into HepG2 cells (derived from American Type Culture Collection (ATCC)) that were seeded in 6-well plates (#3810-006 (Iwaki)) at 1.2×10^6 cells/well, using Lipofectamine 3000 (#100022050 (Invitrogen)). Referring to Garrion P M et al., Fundam Appl Toxicol, 30, 194 (1996), the vector hCYP1A1/pGL4.27 incorporated the human CYP1A1 promotor region including dioxin responsive element (DRE) region of the AhR binding region into the XhoI-BglII restriction enzyme site of pGL4.27 (#E8451 (Promega)). After 24 hours, medium-1 was replaced, and after 48 hours, the medium-1 containing hygromycin B (200 to 1000 μg/mL) was subjected to drug treatment. Culturing using the medium containing hygromycin B was continued for about 1 month to clone 24 clones showing drug resistance. A cell line showing high reporter activity was selected (DRE-Luc HepG2) from drug resistant lines using as an indicator luciferase activity (Dual-Glo Luciferase substrate, #E297A (Promega)) relative to an AhR agonist, 2,3,7,8-tetrachlorodibenzo-p-dioxin (TCDD) (#ED-901-B (CIL.)).
DRE-Luc HepG2 cells subcultured in a 225 cm^2 flask (#11-0005 (Iwaki)) were washed with PBS (#1419-144 (Gibco), Lot: 1896207), and thereto was added 8 mL of Trypsin-EDTA (0.05%) (#25300-054 (Gibco)). Thereafter, an excessive liquid was removed from the mixture, and the cells were stood at room temperature for 5 minutes. Thereto was added 10 mL of medium-2, the cells were recovered through a cell strainer (#352350 (Falcon), 70 μm), and the number of cells were then counted using a hemocytometer. A cell suspension was prepared at 3×10^5 cells/mL, 100 μL/well of the cell suspension was seeded into a 96-well white plate (#136101, F96 Microwell (Nunc)), and the cells were then cultured in a CO2 incubator (5% CO2, 37° C.). After 24 hours, the medium was aspirated, and thereto was added 100 μL of an assay medium solution including the compound of the present invention, and the cells were cultured in the CO2 incubator (5% CO2, 37° C.). After 24 hours, 11 μL of an assay medium solution including 5×10^−10 M TCDD (#ED-901-B (CIL.)) was added thereto and the cells were cultured in the CO2 incubator (5% CO2, 37° C.). After 24 hours, 50 μL of a reaction substrate (#E253B, Steady-Glo Luciferase substrate (Promega)) for Firefly Luciferase enzyme reaction was added to each well, and after 5 minute-shaking, the light emission intensity was measured with Wallac ARVO 1420sx (PerkinElmer).

Question: How did the pIC50 turn out when `CC1(C)CSc2nc3c(NCCc4ccc(O)c(-c5cccc(C#N)c5)c4)nc(-c4cncc(F)c4)nc3n21` [Example 57] was run?
Answer: 9.41

Question: `COc1cccc(-c2cc(CCNc3nc(-c4cncc(F)c4)nc4c3nc3n4C(C)(C)CO3)ccc2O)c1` [Example 13, 4-[2-[[2-(5-fluoropyridin-3-yl)-8,8-dimethyl-7H-purino[8,9-b][1,3]oxazol-4-yl]amino]ethyl]-2-(3-methoxyphenyl)phenol] was tested. Which pIC50 did it give?
Answer: 7.54

Question: How did the pIC50 turn out when `CC1(C)COc2nc3c(NCCc4c[nH]c5ccccc45)nc(-c4cncc(C(F)F)c4)nc3n21` [Example 101] was run?
Answer: 7.54

Question: How did the pIC50 turn out when `C[C@@H]1CSc2nc3c(NCCc4ccc(O)c(-c5ccccc5)c4)nc(-c4cncc(C#N)c4)nc3n21` [Example 50] was run?
Answer: 9.15

Question: `Cc1cncc(-c2cc(CCNc3nc(-c4cncc(F)c4)nc4c3nc3n4C(C)(C)CS3)ccc2O)c1` [Example 73] was tested. Which pIC50 did it give?
Answer: 8.14

Question: With `Oc1ccc(CCNc2nc(-c3cncc(F)c3)nc3c2nc2n3CCCO2)cc1-c1ccccc1F` [Example 144] as the compound, how does the pIC50 read?
Answer: 8.37

Question: `CC1(C)CSc2nc3c(NCCc4ccc(O)c(-c5cncc(F)c5)c4)nc(-c4cncc(F)c4)nc3n21` [Example 70] was tested. Which pIC50 did it give?
Answer: 8.34

Question: How did the pIC50 turn out when `CC1(C)CSc2nc3c(NCCc4ccc(O)cc4)nc(-c4cncc(F)c4)nc3n21` [Example 97] was run?
Answer: 7.72

Question: `Oc1ccc(CCNc2nc(-c3cncc(F)c3)nc3c2nc2n3CCCCS2)cc1-c1ccccc1F` [Example 143] was tested. Which pIC50 did it give?
Answer: 9.22

Question: With `Oc1ccc(CCNc2nc(-c3cncc(F)c3)nc3c2nc2n3CCS2)cc1-c1ccccc1F` [Example 142] as the compound, how does the pIC50 read?
Answer: 9.05

Question: How did the pIC50 turn out when `Oc1ccc(CCNc2nc(-c3cncc(F)c3)nc3c2nc2n3CCCS2)cc1-c1ccccc1F` [Example 145] was run?
Answer: 8.89

System: immortalized megakaryocyte line (SeV2-MKCL)
Experiment: Platelet production: static culturing of immortalized megakaryocyte line
Assay type: cell-based
Settings: compound final concentration 0.1 μM, static culturing 6 to 7 days, control (DMSO) set to 1; platelets = CD41, CD42b and CD42a-positive cells
Procedure: Test Example 2 (Platelet Production: Static Culturing)
The immortalized megakaryocyte line (SeV2-MKCL) obtained according to the method described in WO 2016/204256 was washed twice with D-PBS(−) and then cultured in medium not containing doxycycline to terminate forced expression. Culturing was implemented by seeding the cells at 1 mL/well in a 24-well plate (#662160 (Greiner Rio-One)) at a seeding density of 1×10^5 cells/mL followed by static culturing in the medium indicated below.
The medium was obtained by adding the following components to IMDM serving as the basal medium (concentrations indicate final concentrations).
Culturing was implemented under conditions of 37° C. and 5% CO2. At the same time, the compound of the present invention (final concentration 0.1 μM) or DMSO (control) was added and cultured for 6 to 7 days. Thereafter, the number of platelets (CD41, CD42b, and CD42a-positive cells) was measured. The measurement method was as shown below. The same procedure was performed with the control.
A portion of the culture supernatant was harvested 6 to 7 days after culturing to terminate gene expression, and suspended with the following antibodies to stain them. eFluor 450-labeled anti-CD42a antibody (#48-0428-42 (eBioscience)) PE-labeled anti-CD42b antibody (#303906 (BioLegend)) APC-labeled anti-CD41 antibody (#303710 (BioLegend)) The number of platelets was counted using FACSVerse manufactured by BD 30 minutes after the stain reaction. In the measurement of the number of platelets, the number of cells was corrected using Flow-count beads (#7547053 (Beckman Coulter)).
The number of platelets produced from one megakaryocyte cell was calculated based on the number of platelets in the sample obtained by the FACS measurement, and the result was defined as platelet production efficiency (PLT/MK) and used for evaluation of drug efficacy of the compound. In addition, the specific activity at the time when the platelet production efficiency of the control was set to 1 was indicated as fold increase.

Question: For `CC1(C)CSc2nc3c(NCCc4ccc(O)c(-c5cccc(C#N)c5)c4)nc(-c4cncc(F)c4)nc3n21` [Example 57], which “Static (vs veh): fold increase of platelet production efficiency (PLT/MK)” value (from here on “Static (vs veh): fold increase”) is on record?
Answer: 4.9

Question: `COc1cccc(-c2cc(CCNc3nc(-c4cncc(F)c4)nc4c3nc3n4C(C)(C)CO3)ccc2O)c1` [Example 13, 4-[2-[[2-(5-fluoropyridin-3-yl)-8,8-dimethyl-7H-purino[8,9-b][1,3]oxazol-4-yl]amino]ethyl]-2-(3-methoxyphenyl)phenol] was tested. Which “Static (vs veh): fold increase” value did it give?
Answer: 4.7

Question: With `CC1(C)COc2nc3c(NCCc4c[nH]c5ccccc45)nc(-c4cncc(C(F)F)c4)nc3n21` [Example 101] as the compound, how does the “Static (vs veh): fold increase” value read?
Answer: 3.8

Question: Which “Static (vs veh): fold increase” value does the source give for `C[C@@H]1CSc2nc3c(NCCc4ccc(O)c(-c5ccccc5)c4)nc(-c4cncc(C#N)c4)nc3n21` [Example 50] here?
Answer: 6.6

Question: Which “Static (vs veh): fold increase” value does the source give for `Cc1cncc(-c2cc(CCNc3nc(-c4cncc(F)c4)nc4c3nc3n4C(C)(C)CS3)ccc2O)c1` [Example 73] here?
Answer: 7.9

Question: For `Fc1cncc(-c2nc(NCCc3c[nH]c4ccccc34)c3nc4n(c3n2)CCS4)c1` [Example 105], which “Static (vs veh): fold increase” value is on record?
Answer: 8.2

Question: Which “Static (vs veh): fold increase” value does the source give for `CC1(C)CCOc2nc3c(NCCc4c[nH]c5ccccc45)nc(-c4cncc(F)c4)nc3n21` [Example 89] here?
Answer: 5.0

Question: How did the “Static (vs veh): fold increase” value turn out when `CC1(C)COc2nc3c(NCCc4c[nH]c5ccccc45)nc(-c4ccnc(F)c4)nc3n21` [Example 100] was run?
Answer: 3.5

Question: `CC1(C)COc2nc3c(NCCc4ccc(O)c(-c5ccc(O)cc5)c4)nc(-c4cncc(F)c4)nc3n21` [Example 19, 4-[2-[[2-(5-fluoropyridin-3-yl)-8,8-dimethyl-7H-purino[8,9-b][1,3]oxazol-4-yl]amino]ethyl]-2-(4-hydroxyphenyl)phenol] was tested. Which “Static (vs veh): fold increase” value did it give?
Answer: 2.8

Question: For `CC1(C)CCOc2nc3c(NCCc4ccc(O)cc4)nc(-c4cncc(F)c4)nc3n21` [Example 90], which “Static (vs veh): fold increase” value is on record?
Answer: 2.6

Question: Which “Static (vs veh): fold increase” value does the source give for `Fc1cncc(-c2nc(NCCc3c[nH]c4ccccc34)c3nc4n(c3n2)CCCO4)c1` [Example 84] here?
Answer: 13

Question: Which “Static (vs veh): fold increase” value does the source give for `Cc1[nH]c2ccccc2c1CCNc1nc(-c2cncc(F)c2)nc2c1nc1n2C(C)(C)CO1` [Example 104] here?
Answer: 4.6

Question: `CC1(C)COc2nc3c(NCCc4c[nH]c5ccccc45)nc(-c4ccc(F)c(F)c4)nc3n21` [Example 88] was tested. Which “Static (vs veh): fold increase” value did it give?
Answer: 3.1

Question: `C[C@@H]1CSc2nc3c(NCCc4c[nH]c5ccccc45)nc(-c4cncc(F)c4)nc3n21` [Example 102] was tested. Which “Static (vs veh): fold increase” value did it give?
Answer: 4.5

Question: How did the “Static (vs veh): fold increase” value turn out when `CC1(C)COc2nc3c(NCCc4ccc5[nH]ccc5c4)nc(-c4cncc(F)c4)nc3n21` [Example 103] was run?
Answer: 3.1

Question: `CC1(C)COc2nc3c(NCCc4c[nH]c5ccccc45)nc(-c4cncc(F)c4)nc3n21` [Example 82] was tested. Which “Static (vs veh): fold increase” value did it give?
Answer: 5.0

Question: Which “Static (vs veh): fold increase” value does the source give for `Cc1cncc(-c2nc(NCCc3c[nH]c4ccccc34)c3nc4n(c3n2)C(C)(C)CO4)c1` [Example 83] here?
Answer: 5.8

Question: Which “Static (vs veh): fold increase” value does the source give for `CC1(C)COc2nc3c(NCCc4c[nH]c5ccccc45)nc(-c4ccccc4)nc3n21` [Example 116] here?
Answer: 2.5

Question: `CC1(C)CSc2nc3c(NCCc4c[nH]c5ccccc45)nc(-c4cncc(F)c4)nc3n21` [Example 95] was tested. Which “Static (vs veh): fold increase” value did it give?
Answer: 2.4

Question: For `CC1(C)COc2nc3c(NCCc4c[nH]c5ccccc45)nc(-c4ccccc4F)nc3n21` [Example 113], which “Static (vs veh): fold increase” value is on record?
Answer: 2.5

Question: `CC1(C)COc2nc3c(NCCc4c[nH]c5ccccc45)nc(-c4ccc(F)cc4)nc3n21` [Example 114] was tested. Which “Static (vs veh): fold increase” value did it give?
Answer: 2.2

Question: For `C[C@H]1CSc2nc3c(NCCc4c[nH]c5ccccc45)nc(-c4cncc(F)c4)nc3n21` [Example 106], which “Static (vs veh): fold increase” value is on record?
Answer: 6.9

Question: How did the “Static (vs veh): fold increase” value turn out when `CC1(C)COc2nc3c(NCCc4ccc(O)cc4)nc(-c4cncc(F)c4)nc3n21` [Example 80] was run?
Answer: 3.4

Question: `Cc1cc(CCNc2nc(-c3cncc(F)c3)nc3c2nc2n3C(C)(C)CO2)ccc1O` [Example 51] was tested. Which “Static (vs veh): fold increase” value did it give?
Answer: 2.6

Question: Which “Static (vs veh): fold increase” value does the source give for `CC1(C)COc2nc3c(NCCc4ccc(O)c(-c5cncc(C#N)c5)c4)nc(-c4cncc(F)c4)nc3n21` [Example 75] here?
Answer: 2.7

Question: `Fc1cncc(-c2nc(NCCc3c[nH]c4ccccc34)c3nc4n(c3n2)CCCCS4)c1` [Example 107] was tested. Which “Static (vs veh): fold increase” value did it give?
Answer: 7.9
